Measured values taken from ChEMBL document CHEMBL4837183, “Antiproliferative Bufadienolides from the Bulbs of Drimia altissima” (2021).

How the values were obtained:
Assay type in all cases: functional
SR = assay: Growth inhibition of human SR cells measured after 48 hrs by SRB assay
U-251 = assay: Growth inhibition of human U-251 cells measured after 48 hrs by SRB assay
Hs-578T = assay: Growth inhibition of human Hs-578T cells measured after 48 hrs by SRB assay
CCRF-CEM = assay: Growth inhibition of human CCRF-CEM cells measured after 48 hrs by SRB assay
MDA-MB-468 = assay: Growth inhibition of human MDA-MB-468 cells measured after 48 hrs by SRB assay
K562 = assay: Growth inhibition of human K562 cells measured after 48 hrs by SRB assay
MCF7 = assay: Growth inhibition of human MCF7 cells measured after 48 hrs by SRB assay
TK-10 = assay: Growth inhibition of human TK-10 cells measured after 48 hrs by SRB assay
DU-145 = assay: Growth inhibition of human DU-145 cells measured after 48 hrs by SRB assay
HT-29 = assay: Growth inhibition of human HT-29 cells measured after 48 hrs by SRB assay
SNB-19 = assay: Growth inhibition of human SNB-19 cells measured after 48 hrs by SRB assay
OVCAR-8 = assay: Growth inhibition of human OVCAR-8 cells measured after 48 hrs by SRB assay
HOP-62 = assay: Growth inhibition of human HOP-62 cells measured after 48 hrs by SRB assay
LOX IMVI = assay: Growth inhibition of human LOX IMVI cells measured after 48 hrs by SRB assay
ACHN = assay: Growth inhibition of human ACHN cells measured after 48 hrs by SRB assay
BT-549 = assay: Growth inhibition of human BT-549 cells measured after 48 hrs by SRB assay
OVCAR-5 = assay: Growth inhibition of human OVCAR-5 cells measured after 48 hrs by SRB assay
COLO 205 = assay: Growth inhibition of human COLO 205 cells measured after 48 hrs by SRB assay
A498 = assay: Growth inhibition of human A498 cells measured after 48 hrs by SRB assay
SK-MEL-28 = assay: Growth inhibition of human SK-MEL-28 cells measured after 48 hrs by SRB assay
786-0 = assay: Growth inhibition of human 786-0 cells measured after 48 hrs by SRB assay
CAKI-1 = assay: Growth inhibition of human CAKI-1 cells measured after 48 hrs by SRB assay
KM12 = assay: Growth inhibition of human KM12 cells measured after 48 hrs by SRB assay
HOP-92 = assay: Growth inhibition of human HOP-92 cells measured after 48 hrs by SRB assay
PC-3 = assay: Growth inhibition of human PC-3 cells measured after 48 hrs by SRB assay
RXF 393 = assay: Growth inhibition of human RXF 393 cells measured after 48 hrs by SRB assay
A549 = assay: Growth inhibition of human A549 cells measured after 48 hrs by SRB assay
NCI-H522 = assay: Growth inhibition of human NCI-H522 cells measured after 48 hrs by SRB assay
NCI/ADR-RES = assay: Growth inhibition of human NCI/ADR-RES cells measured after 48 hrs by SRB assay
HCC 2998 = assay: Growth inhibition of human HCC 2998 cells measured after 48 hrs by SRB assay
MDA-MB-231 = assay: Growth inhibition of human MDA-MB-231 cells measured after 48 hrs by SRB assay
SNB-75 = assay: Growth inhibition of human SNB-75 cells measured after 48 hrs by SRB assay
IGROV-1 = assay: Growth inhibition of human IGROV-1 cells measured after 48 hrs by SRB assay
SN12C = assay: Growth inhibition of human SN12C cells measured after 48 hrs by SRB assay
MOLT-4 = assay: Growth inhibition of human MOLT-4 cells measured after 48 hrs by SRB assay
SK-MEL-2 = assay: Growth inhibition of human SK-MEL-2 cells measured after 48 hrs by SRB assay
HL-60 = assay: Growth inhibition of human HL-60 cells measured after 48 hrs by SRB assay
SW-620 = assay: Growth inhibition of human SW-620 cells measured after 48 hrs by SRB assay
NCI-H322M = assay: Growth inhibition of human NCI-H322M cells measured after 48 hrs by SRB assay
SF-268 = assay: Growth inhibition of human SF-268 cells measured after 48 hrs by SRB assay
M14 = assay: Growth inhibition of human M14 cells measured after 48 hrs by SRB assay
T47D = assay: Growth inhibition of human T47D cells measured after 48 hrs by SRB assay
UACC-257 = assay: Growth inhibition of human UACC-257 cells measured after 48 hrs by SRB assay
NCI-H460 = assay: Growth inhibition of human NCI-H460 cells measured after 48 hrs by SRB assay
HCT-15 = assay: Growth inhibition of human HCT-15 cells measured after 48 hrs by SRB assay
NCI-H226 = assay: Growth inhibition of human NCI-H226 cells measured after 48 hrs by SRB assay
OVCAR-3 = assay: Growth inhibition of human OVCAR-3 cells measured after 48 hrs by SRB assay
Malme-3M = assay: Growth inhibition of human Malme-3M cells measured after 48 hrs by SRB assay
HCT-116 = assay: Growth inhibition of human HCT-116 cells measured after 48 hrs by SRB assay
UO-31 = assay: Growth inhibition of human UO-31 cells measured after 48 hrs by SRB assay
SK-OV-3 = assay: Growth inhibition of human SK-OV-3 cells measured after 48 hrs by SRB assay
SF-295 = assay: Growth inhibition of human SF-295 cells measured after 48 hrs by SRB assay
SF-539 = assay: Growth inhibition of human SF-539 cells measured after 48 hrs by SRB assay
SK-MEL-5 = assay: Growth inhibition of human SK-MEL-5 cells measured after 48 hrs by SRB assay
NCI-H23 = assay: Growth inhibition of human NCI-H23 cells measured after 48 hrs by SRB assay
UACC-62 = assay: Growth inhibition of human UACC-62 cells measured after 48 hrs by SRB assay
MDA-MB-435 = assay: Growth inhibition of human MDA-MB-435 cells measured after 48 hrs by SRB assay

Work on C[C@]12CC[C@H]3[C@@H](CC[C@H]4C[C@@H](O)CC[C@@]43C=O)[C@@]1(O)CC[C@@H]2c1ccc(=O)oc1 yielded a GI50 (SR) of 2.03 µM, a GI50 (U-251) of 4.47 µM and a GI50 (Hs-578T) of 0.739 µM. For the same molecule, the GI50 (CCRF-CEM) was 1.07 µM, the GI50 (MDA-MB-468) was 8.23 µM and the GI50 (K562) was 4.28 µM. The GI50 (MCF7) was 0.99 µM, the GI50 (TK-10) was 2.58 µM and the GI50 (DU-145) was 1.18 µM. It also gave a GI50 (HT-29) of 2.7 µM, a GI50 (SNB-19) of 6.41 µM and a GI50 (OVCAR-8) of 2.83 µM. For the same molecule, the GI50 (HOP-62) was 1.1 µM, the GI50 (LOX IMVI) was 2.37 µM and the GI50 (ACHN) was 0.502 µM. The GI50 (BT-549) was 1.73 µM, the GI50 (OVCAR-5) was 5.21 µM and the GI50 (COLO 205) was 6.52 µM. It also gave a GI50 (A498) of 1.13 µM, a GI50 (SK-MEL-28) of 6.05 µM and a GI50 (786-0) of 1.76 µM. It also gave a GI50 (CAKI-1) of 1.5 µM, a GI50 (KM12) of 6.25 µM and a GI50 (HOP-92) of 3.22 µM. It also gave a GI50 (PC-3) of 3.53 µM, a GI50 (RXF 393) of 0.418 µM and a GI50 (A549) of 0.562 µM. For the same molecule, the GI50 (NCI-H522) was 0.694 µM, the GI50 (NCI/ADR-RES) was 1.49 µM and the GI50 (HCC 2998) was 8.74 µM. It also gave a GI50 (MDA-MB-231) of 14.1 µM, a GI50 (SNB-75) of 3.18 µM and a GI50 (IGROV-1) of 5.06 µM. The GI50 (SN12C) was 0.877 µM, the GI50 (MOLT-4) was 0.665 µM and the GI50 (SK-MEL-2) was 4.3 µM. It also gave a GI50 (HL-60) of 3.41 µM, a GI50 (SW-620) of 1.34 µM and a GI50 (NCI-H322M) of 3.12 µM. The GI50 (SF-268) was 1.07 µM, the GI50 (M14) was 4.14 µM and the GI50 (T47D) was 4.74 µM. For the same molecule, the GI50 (UACC-257) was 4.5 µM, the GI50 (NCI-H460) was 0.556 µM and the GI50 (HCT-15) was 2.15 µM. It also gave a GI50 (NCI-H226) of 6.87 µM, a GI50 (OVCAR-3) of 1.71 µM and a GI50 (Malme-3M) of 3.47 µM. The GI50 (HCT-116) was 0.633 µM, the GI50 (UO-31) was 1.6 µM and the GI50 (SK-OV-3) was 5.63 µM. It also gave a GI50 (SF-295) of 1.98 µM, a GI50 (SF-539) of 1.47 µM and a GI50 (SK-MEL-5) of 2.35 µM. The GI50 (NCI-H23) was 1.71 µM, the GI50 (UACC-62) was 3.2 µM and the GI50 (MDA-MB-435) was 3.5 µM.

C[C@]12CC[C@H](O)C=C1CC[C@@H]1[C@@H]2[C@@H](O)C[C@]2(C)[C@@H](c3ccc(=O)oc3)CC[C@]12O was tested, and the GI50 (SR) was 1.1 µM, the GI50 (U-251) was 1.28 µM and the GI50 (Hs-578T) was 0.337 µM. The GI50 (CCRF-CEM) was 0.588 µM, the GI50 (MDA-MB-468) was 3.75 µM and the GI50 (K562) was 1.39 µM. It also gave a GI50 (MCF7) of 0.473 µM, a GI50 (TK-10) of 0.75 µM and a GI50 (DU-145) of 0.478 µM. It also gave a GI50 (HT-29) of 0.689 µM, a GI50 (SNB-19) of 3.86 µM and a GI50 (OVCAR-8) of 0.78 µM. For the same molecule, the GI50 (HOP-62) was 0.454 µM, the GI50 (LOX IMVI) was 1.03 µM and the GI50 (ACHN) was 0.351 µM. It also gave a GI50 (BT-549) of 0.371 µM, a GI50 (OVCAR-5) of 2.36 µM and a GI50 (COLO 205) of 3.4 µM. It also gave a GI50 (A498) of 0.362 µM, a GI50 (SK-MEL-28) of 2.97 µM and a GI50 (786-0) of 0.541 µM. For the same molecule, the GI50 (CAKI-1) was 0.436 µM, the GI50 (KM12) was 3.2 µM and the GI50 (HOP-92) was 2.08 µM. It also gave a GI50 (PC-3) of 1.33 µM, a GI50 (RXF 393) of 0.298 µM and a GI50 (A549) of 0.353 µM. For the same molecule, the GI50 (NCI-H522) was 0.377 µM, the GI50 (NCI/ADR-RES) was 0.657 µM and the GI50 (HCC 2998) was 4.32 µM. The GI50 (MDA-MB-231) was 5.42 µM, the GI50 (SNB-75) was 1.17 µM and the GI50 (IGROV-1) was 1.82 µM. It also gave a GI50 (SN12C) of 0.468 µM, a GI50 (MOLT-4) of 0.369 µM and a GI50 (SK-MEL-2) of 2.33 µM. The GI50 (HL-60) was 0.563 µM, the GI50 (SW-620) was 0.559 µM and the GI50 (NCI-H322M) was 1.23 µM. It also gave a GI50 (SF-268) of 0.538 µM, a GI50 (M14) of 2.57 µM and a GI50 (T47D) of 1.54 µM. For the same molecule, the GI50 (UACC-257) was 2.63 µM, the GI50 (NCI-H460) was 0.365 µM and the GI50 (HCT-15) was 0.808 µM. The GI50 (NCI-H226) was 1.76 µM, the GI50 (OVCAR-3) was 0.531 µM and the GI50 (Malme-3M) was 1.26 µM. The GI50 (HCT-116) was 0.399 µM, the GI50 (UO-31) was 0.653 µM and the GI50 (SK-OV-3) was 2.67 µM. For the same molecule, the GI50 (SF-295) was 0.66 µM, the GI50 (SF-539) was 0.577 µM and the GI50 (SK-MEL-5) was 0.703 µM. It also gave a GI50 (NCI-H23) of 0.664 µM, a GI50 (UACC-62) of 1.76 µM and a GI50 (MDA-MB-435) of 1.8 µM.
